The values that follow come from US7267715B2, “Ink and ink set” (Fujifilm Corporation, priority 2003, dated 2007).

The data set in a line: Oxidation potential by cyclic voltammetry. Format: physicochemical. The note with it: test method of the specification (dimethylformamide, tetrapropylammonium perchlorate). The method, then: More specifically, a test sample is dissolved to a concentration of 1×10^−6 to 1×10^−4 mol/liter in a solvent such as dimethylformamide or acetonitrile containing a supporting electrolyte such as sodium perchlorate or tetrapropylammonium perchlorate and the oxidation potential is measured as a value to SCE (saturated calomel electrode) using a cyclic voltammetry. This value sometimes deviates on the order of tens of millivolt due to the effect of liquid junction potential, liquid resistance of sample solution, or the like, however, the reproducibility of potential can be guaranteed by adding a standard sample (for example, hydroquinone). In order to univocally specify the potential, in the present invention, the value (SCE standard) measured in a dimethylformamide (concentration of dye: 0.001·moldm^−3) containing 0.1 mol·dm^−3 of tetrapropylammonium perchlorate as the supporting electrolyte is used as the oxidation potential of the dye. In the case of a water-soluble dye, the dye is sometimes hardly dissolved directly in N,N-dimethylformamide. In such a case, the oxidation potential is measured after dissolving the dye by using water in a small amount as much as possible and then diluting it with N,N-dimethylformamide to have a water content of 2% or less.

Consider `CC(C)(C)c1nn(-c2nc(Nc3cc(C(=O)[O-])cc(C(=O)[O-])c3)nc(Nc3cc(C(=O)[O-])cc(C(=O)[O-])c3)n2)c(N)c1/N=N/c1ncns1.[Na+].[Na+].[Na+].[Na+]` [Y-2], for which the oxidation potential is 1.25 V (vs SCE). Turning to `Cc1c(C#N)c(Nc2ccc(S(=O)(=O)[O-])cc2)nc(Nc2ccc(S(=O)(=O)[O-])cc2)c1N=Nc1sc(N=Nc2cc(C(=O)[O-])cc(C(=O)[O-])c2)cc1C#N.[Li+].[Li+].[Li+].[Li+]` [BK-4], the oxidation potential was 1.32 V (vs SCE). To `Cc1cc(C)c(S(=O)(=O)[O-])c(C)c1Nc1nc(N(c2nc3ccc(S(=O)(=O)[O-])cc3s2)c2c(C)cc(C)c(S(=O)(=O)O)c2C)ccc1/N=N/c1c(C#N)c(C(C)(C)C)nn1-c1nc2ccc(S(=O)(=O)[O-])cc2s1.[K+].[K+].[Na+]` [M-3] belongs 1.29 V (vs SCE); to `CC(C)CSc1nnc(/N=N/c2c(C(C)(C)C)nn(-c3nc(Nc4cc(C(=O)[O-])cc(C(=O)[O-])c4)nc(Nc4cc(C(=O)[O-])cc(C(=O)[O-])c4)n3)c2N)s1.[K+].[K+].[K+].[K+]` [Y-3], 1.22 V (vs SCE).
